Structures are written as SMILES.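 Where inhibition never reached the appropriate level, the endpoint shown equals the highest concentration tested. Otherwise, values were interpolated linearly from a five-concentration, 48-hour dose response in 96-well plates. TGI: concentration producing complete growth inhibition.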 Bounds are passed on as bounds.

TGI data for seven molecules are collected here from PubChem BioAssay (NCI).

Test systems include A549 NSCLC; DU-145 prostate; HOP-62 NSCLC; HS 578T breast; IGROV1 ovarian; M14 melanoma; MCF7 breast; MDA-MB-435; MDA-N; OVCAR-4 ovarian; OVCAR-5 ovarian; OVCAR-8 ovarian; PC-3 prostate; RPMI-8226 leukemia; SK-MEL-2 melanoma; SK-MEL-28 melanoma; SNB-75 CNS; U251 CNS; NCI/ADR-RES ovarian; SR leukemia.
What all share (assay): NCI tumour cell line growth inhibition, 48 h

On to `C/C(=N\NC(=S)NC1CCCC1)c1ccccn1`, for which the TGI in the assay with A549 NSCLC is more than 53.6 µM; in the assay with DU-145 prostate, more than 43 µM; in the assay with HOP-62 NSCLC, more than 81.9 µM; in the assay with HS 578T breast it was more than 100 µM; in the assay on IGROV1 ovarian, more than 44.1 µM; with M14 melanoma, 15.7 µM. Also, the TGI is 28.7 µM with MCF7 breast; more than 75.6 µM in the assay with MDA-MB-435; 35.4 µM in the assay on MDA-N; more than 100 µM in the assay with OVCAR-4 ovarian; more than 100 µM in the assay with OVCAR-5 ovarian; more than 22.4 µM in the assay on OVCAR-8 ovarian. Also, the TGI in the assay with PC-3 prostate was more than 100 µM; in the assay on RPMI-8226 leukemia, 1.99 µM; in the assay with SK-MEL-2 melanoma it was more than 100 µM; in the assay on SK-MEL-28 melanoma, more than 100 µM; in the assay with SNB-75 CNS it was more than 100 µM; in the assay with U251 CNS, more than 100 µM.
Take `COC(=O)C12OC(C)(C(CC(=O)OC(C)(C)C)C1=O)C1C(=O)N(c3ccccc3)C(=O)C12` (stereo not given): the TGI with A549 NSCLC, in the assay with DU-145 prostate, in the assay on HOP-62 NSCLC, with HS 578T breast, in the assay on IGROV1 ovarian and in the assay on M14 melanoma was more than 100 µM in each case. In addition, the TGI in the assay on MDA-MB-435, in the assay on MDA-N, in the assay with NCI/ADR-RES ovarian, in the assay with OVCAR-4 ovarian, in the assay on OVCAR-5 ovarian and in the assay with OVCAR-8 ovarian was more than 100 µM in each case. Also, the TGI with PC-3 prostate, in the assay with RPMI-8226 leukemia, with SK-MEL-2 melanoma, with SK-MEL-28 melanoma, in the assay on SNB-75 CNS and in the assay with SR leukemia was more than 100 µM throughout. In the assay with U251 CNS, this molecule showed a TGI of more than 100 µM.
`O=C1NC(=S)NC(=O)C1C(c1ccc([N+](=O)[O-])cc1)C1C(=O)NC(=S)NC1=O`: the TGI with A549 NSCLC, in the assay on DU-145 prostate, with HOP-62 NSCLC, in the assay with HS 578T breast, in the assay on IGROV1 ovarian and with M14 melanoma was more than 100 µM in each case. For the same molecule, the TGI in the assay on MCF7 breast, in the assay on MDA-MB-435, in the assay on MDA-N, in the assay with NCI/ADR-RES ovarian, in the assay with OVCAR-4 ovarian and in the assay on OVCAR-5 ovarian was more than 100 µM in each case. In addition, the TGI in the assay on OVCAR-8 ovarian, with PC-3 prostate, with RPMI-8226 leukemia, in the assay on SK-MEL-2 melanoma, in the assay on SK-MEL-28 melanoma and with U251 CNS was more than 100 µM each time.
`Cc1cc(OCc2nn(CN3CCN(C)CC3)c(=S)n2/N=C/c2ccc(-c3ccc(Cl)cc3Cl)o2)ccc1Cl`: the TGI with DU-145 prostate, in the assay on HOP-62 NSCLC, in the assay with HS 578T breast, in the assay with IGROV1 ovarian, in the assay on M14 melanoma and with MCF7 breast was more than 100 µM throughout. Also, the TGI is more than 100 µM in the assay on MDA-MB-435; more than 100 µM with MDA-N; more than 100 µM with NCI/ADR-RES ovarian; 70.6 µM with OVCAR-4 ovarian; more than 100 µM in the assay with OVCAR-5 ovarian; more than 100 µM in the assay with OVCAR-8 ovarian. In addition, the TGI with PC-3 prostate, in the assay on RPMI-8226 leukemia, in the assay on SK-MEL-2 melanoma, in the assay on SK-MEL-28 melanoma and with U251 CNS was more than 100 µM each time.
As for `NC1CC(N)c2c(Br)sc(Br)c21` (stereo not given), the TGI with A549 NSCLC, with DU-145 prostate, in the assay with HOP-62 NSCLC, with HS 578T breast, in the assay with IGROV1 ovarian and in the assay on M14 melanoma was more than 100 µM each time. Moreover, the TGI with MCF7 breast, with MDA-MB-435, in the assay with MDA-N, in the assay with NCI/ADR-RES ovarian, in the assay on OVCAR-4 ovarian and with OVCAR-5 ovarian was more than 100 µM in each case. For the same molecule, the TGI in the assay with OVCAR-8 ovarian, with SK-MEL-2 melanoma, with SK-MEL-28 melanoma, in the assay on SR leukemia and in the assay on U251 CNS was more than 100 µM in each case.
As to `C=C(C(=O)O)C1CCC(CC/C=C(\C)CC/C=C(\C)CCC=C(C)C)CO1` (stereo not given), the TGI in the assay on A549 NSCLC was 32.4 µM; in the assay with DU-145 prostate, 42.2 µM; in the assay with HOP-62 NSCLC it was 55.6 µM; with HS 578T breast it was more than 100 µM; in the assay on IGROV1 ovarian it was 39.3 µM; with M14 melanoma, 25.5 µM. Further, the TGI with MCF7 breast is 32.6 µM; in the assay on MDA-MB-435 it was 53.7 µM; in the assay on MDA-N, 27.8 µM; in the assay with NCI/ADR-RES ovarian it was 81.8 µM; in the assay with OVCAR-4 ovarian, more than 100 µM; with OVCAR-5 ovarian, 35.7 µM. In addition, the TGI in the assay with OVCAR-8 ovarian was 39.9 µM; in the assay on PC-3 prostate, 79.1 µM; in the assay with SK-MEL-2 melanoma, 60.4 µM; in the assay on SK-MEL-28 melanoma, 29.5 µM; with SNB-75 CNS it was more than 100 µM; in the assay with U251 CNS, 78.6 µM.
With `COc1ccc(Cc2c(N)[nH]c(=O)n(C)c2=O)cc1`, the TGI in the assay with A549 NSCLC is more than 100 µM; in the assay on HOP-62 NSCLC, more than 100 µM; in the assay with HS 578T breast, more than 100 µM; with IGROV1 ovarian, more than 100 µM; in the assay with M14 melanoma, more than 100 µM; in the assay with MCF7 breast, 22.2 µM. In addition, the TGI in the assay on MDA-MB-435, in the assay with MDA-N, with NCI/ADR-RES ovarian, in the assay with OVCAR-4 ovarian, in the assay with OVCAR-5 ovarian and with OVCAR-8 ovarian was more than 100 µM in each case. Also, the TGI in the assay with PC-3 prostate, in the assay on RPMI-8226 leukemia, with SK-MEL-2 melanoma, with SK-MEL-28 melanoma, with SNB-75 CNS and with U251 CNS was more than 100 µM throughout.
